Source: ChEMBL document CHEMBL1926625, “Identification of benzoxazin-3-one derivatives as novel, potent, and selective nonsteroidal mineralocorticoid receptor antagonists” (J Med Chem, 2011)

Key:
[1] = AUC (0 to 24 hrs) in Sprague-Dawley rat at 10 mg/kg, po; format: ADME, organism-based; design: time < 24 hr, dose 10 mg/kg, route oral; conditions: plasma
Progesterone receptor = target: T1, Progesterone receptor (Homo sapiens, UniProt P06401); test: Displacement of [3H]progesterone from PR
T1 sequence (P06401 whole entry): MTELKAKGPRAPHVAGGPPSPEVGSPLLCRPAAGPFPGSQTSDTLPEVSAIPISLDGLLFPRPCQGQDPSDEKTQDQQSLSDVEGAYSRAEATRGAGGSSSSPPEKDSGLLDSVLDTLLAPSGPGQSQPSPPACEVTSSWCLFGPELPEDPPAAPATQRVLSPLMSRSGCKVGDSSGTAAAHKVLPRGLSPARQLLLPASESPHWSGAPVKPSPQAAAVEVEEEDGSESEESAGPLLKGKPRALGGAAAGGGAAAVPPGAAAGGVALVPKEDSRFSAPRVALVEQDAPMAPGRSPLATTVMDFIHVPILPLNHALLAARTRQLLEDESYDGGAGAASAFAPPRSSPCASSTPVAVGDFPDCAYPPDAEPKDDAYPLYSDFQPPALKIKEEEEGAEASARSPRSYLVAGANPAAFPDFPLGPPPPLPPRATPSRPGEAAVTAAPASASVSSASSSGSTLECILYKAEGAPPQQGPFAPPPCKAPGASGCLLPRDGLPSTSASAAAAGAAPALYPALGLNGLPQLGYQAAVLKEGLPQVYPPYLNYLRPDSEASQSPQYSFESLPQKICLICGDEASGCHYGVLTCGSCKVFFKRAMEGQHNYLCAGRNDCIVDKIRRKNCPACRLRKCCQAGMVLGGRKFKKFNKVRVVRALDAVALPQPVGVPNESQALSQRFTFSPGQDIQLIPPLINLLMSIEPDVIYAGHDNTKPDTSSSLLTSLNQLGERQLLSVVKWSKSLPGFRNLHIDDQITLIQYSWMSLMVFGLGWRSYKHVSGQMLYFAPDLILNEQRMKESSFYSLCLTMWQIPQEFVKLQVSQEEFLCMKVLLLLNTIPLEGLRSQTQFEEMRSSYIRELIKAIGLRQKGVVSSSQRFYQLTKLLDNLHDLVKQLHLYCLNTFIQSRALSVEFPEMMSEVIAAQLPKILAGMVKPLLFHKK

- AUC(0-t) at 24 h [1]: 3830 ng·h/mL
- IC50 (Progesterone receptor): 1900 nM
Structure (SMILES): Cc1cc(F)ccc1-n1nc(C(F)(F)F)cc1-c1ccc2c(c1)NC(=O)CO2
